Experimental data published in ChEMBL document CHEMBL4706634, “PEGylated and Acylated Elabela Analogues Show Enhanced Receptor Binding, Prolonged Stability, and Remedy of Acute Kidney Injury” (J Med Chem, 2020).
The source made the active and inactive calls. No cut-off for these calls is given here.

How the values were obtained:
[1] = tested on: Mus musculus; experiment: Reno-protective activity in C57BL/6 mouse model of renal I/R injury assessed as reduction lymphocyte infiltration dosed intraperitoneally twice per day for 3 days from day of I/R injury to end of experiment; assay type: functional, organism-based; settings: time 3.0 day
[2] = tested on: Mus musculus; experiment: Reno-protective activity in C57BL/6 mouse model of renal I/R injury assessed as reduction in cleaved-caspase-3 levels dosed intraperitoneally twice per day for 3 days from day of I/R injury to end of experiment by Western blot analysis; assay type: functional, organism-based; settings: time 3.0 day
[3] = Stability in human plasma assessed as half life at 1.56 mM by RP-HPLC analysis; assay type: ADME, cell-free
[4] = tested on: NRK-52E; experiment: Cytoprotective activity in rat NRK-52E cells assessed as reduction in cisplatin-induced cell death at 300 pM incubated for 24 hrs; assay type: functional, cell-based
[5] = tested on: Mus musculus; experiment: Reno-protective activity in C57BL/6 mouse model of renal I/R injury assessed as reduction neutrophil infiltration dosed intraperitoneally twice per day for 3 days from day of I/R injury to end of experiment; assay type: functional, organism-based; settings: time 3.0 day
[6] = tested on: Mus musculus; experiment: Reno-protective activity in C57BL/6 mouse model of renal I/R injury assessed as improvement in pathologies in injured kidneys dosed intraperitoneally twice per day for 3 days from day of I/R injury to end of experiment by hematoxylin and eosin staining based assay; assay type: functional, organism-based; settings: time 3.0 day
[7] = tested on: Mus musculus; experiment: Reno-protective activity in C57BL/6 mouse model of renal I/R injury assessed as reduction in p-MLK levels dosed intraperitoneally twice per day for 3 days from day of I/R injury to end of experiment by Western blot analysis; assay type: functional, organism-based; settings: time 3.0 day
[8] = molecular target: T1, Apelin receptor (Rattus norvegicus, UniProt Q9JHG3); experiment: Agonist activity at APJ receptor in rat NRK-52E cells assessed as effect on cAMP accumulation incubated for 1 hr by cAMP-Glo assay; assay type: functional, cell-based
T1 sequence (Q9JHG3 whole entry): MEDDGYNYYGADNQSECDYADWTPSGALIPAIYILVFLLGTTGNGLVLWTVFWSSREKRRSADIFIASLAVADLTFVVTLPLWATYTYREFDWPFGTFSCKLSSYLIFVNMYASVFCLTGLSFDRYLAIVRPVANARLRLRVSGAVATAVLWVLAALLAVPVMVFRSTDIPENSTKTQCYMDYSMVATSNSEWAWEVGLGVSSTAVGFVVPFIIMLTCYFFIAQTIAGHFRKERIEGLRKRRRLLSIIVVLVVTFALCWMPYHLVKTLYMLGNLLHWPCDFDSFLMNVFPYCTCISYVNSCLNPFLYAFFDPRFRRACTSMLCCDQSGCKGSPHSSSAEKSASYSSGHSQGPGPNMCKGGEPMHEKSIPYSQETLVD

[9] = tested on: Mus musculus; experiment: Reno-protective activity in C57BL/6 mouse model of renal I/R injury assessed as suppression of reduction in cleaved-caspase-8 levels dosed intraperitoneally twice per day for 3 days from day of I/R injury to end of experiment by Western blot analysis; assay type: functional, organism-based; settings: time 3.0 day
[10] = tested on: Mus musculus; experiment: Reno-protective activity in C57BL/6 mouse model of renal I/R injury assessed as reduction N-gal mRNA levels dosed intraperitoneally twice per day for 3 days from day of I/R injury to end of experiment by qPCR analysis; assay type: functional, organism-based; settings: time 3.0 day
[11] = Stability in mouse plasma assessed as intact peptide level at 1.56 mM incubated for 1 hr by RP-HPLC analysis; assay type: ADME, cell-free; settings: read-out: Stabilty
[12] = tested on: Mus musculus; experiment: Reno-protective activity in C57BL/6 mouse model of renal I/R injury assessed as reduction in fibrosis by measuring collagen deposition dosed intraperitoneally twice per day for 3 days from day of I/R injury to end of experiment by Masson staining based assay; assay type: functional, organism-based; settings: time 3.0 day
[13] = tested on: NRK-52E; experiment: Cytoprotective activity in rat NRK-52E cells assessed as reduction in H/R-injury induced cell death at 300 pM incubated for 24 hrs; assay type: functional, cell-based
[14] = Stability in mouse plasma assessed as half life at 1.56 mM by RP-HPLC analysis; assay type: ADME, cell-free
[15] = tested on: Mus musculus; experiment: Reno-protective activity in C57BL/6 mouse model of renal I/R injury assessed as reduction in serum BUN level dosed intraperitoneally twice per day for 3 days from day of I/R injury to end of experiment; assay type: functional, organism-based; settings: time 3.0 day
[16] = tested on: Mus musculus; experiment: Reno-protective activity in C57BL/6 mouse model of renal I/R injury assessed as reduction in apoptosis by measuring increase in number of TUNEL+ cells dosed intraperitoneally twice per day for 3 days from day of I/R injury to end of experiment by TUNEL assay; assay type: functional, organism-based; settings: time 3.0 day
[17] = Half life in mouse at 3 umol/kg, iv by analytical RP-HPLC analysis; assay type: ADME, organism-based; settings: in vivo, dose 3 µmol/kg
[18] = tested on: Mus musculus; experiment: Reno-protective activity in C57BL/6 mouse model of renal I/R injury assessed as reduction Il6 mRNA levels dosed intraperitoneally twice per day for 3 days from day of I/R injury to end of experiment by qPCR analysis; assay type: functional, organism-based; settings: time 3.0 day
[19] = tested on: Mus musculus; experiment: Reno-protective activity in C57BL/6 mouse model of renal I/R injury assessed as reduction in serum creatinine level dosed intraperitoneally twice per day for 3 days from day of I/R injury to end of experiment; assay type: functional, organism-based; settings: time 3.0 day
[20] = tested on: Mus musculus; experiment: Reno-protective activity in C57BL/6 mouse model of renal I/R injury assessed as suppression of renal dysfunction dosed intraperitoneally twice per day for 3 days starting from 6 hrs post I/R operation by hematoxylin and eosin staining based assay; assay type: functional, organism-based; settings: time 3.0 day
[21] = tested on: Mus musculus; experiment: Reno-protective activity in C57BL/6 mouse model of renal I/R injury assessed as reduction Kim1 mRNA levels dosed intraperitoneally twice per day for 3 days from day of I/R injury to end of experiment by qPCR analysis; assay type: functional, organism-based; settings: time 3.0 day
[22] = tested on: Mus musculus; experiment: Reno-protective activity in C57BL/6 mouse model of renal I/R injury assessed as suppression of renal tubular damage dosed intraperitoneally twice per day for 3 days starting from 6 to 24 hrs post I/R operation by hematoxylin and eosin staining based assay; assay type: functional, organism-based; settings: time 3.0 day
[23] = tested on: Mus musculus; experiment: Reno-protective activity in C57BL/6 mouse model of renal I/R injury assessed as reduction in tubular epithelial cell apoptosis dosed intraperitoneally twice per day for 3 days starting from 6 to 24 hrs post I/R operation by TUNEL assay; assay type: functional, organism-based; settings: time 3.0 day
[24] = tested on: Mus musculus; experiment: Reno-protective activity in C57BL/6 mouse model of renal I/R injury assessed as reduction in tubular epithelial cell necroptosis dosed intraperitoneally twice per day for 3 days starting from 6 to 24 hrs post I/R operation by TUNEL assay; assay type: functional, organism-based; settings: time 3.0 day
[25] = tested on: Mus musculus; experiment: Reno-protective activity in C57BL/6 mouse model of renal I/R injury assessed as reduction TNF-alpha mRNA levels dosed intraperitoneally twice per day for 3 days from day of I/R injury to end of experiment by qPCR analysis; assay type: functional, organism-based; settings: time 3.0 day
[26] = tested on: Mus musculus; experiment: Reno-protective activity in C57BL/6 mouse model of renal I/R injury assessed as reduction neutrophil infiltration dosed intraperitoneally twice per day for 3 days starting from 6 to 24 hrs post I/R operation; assay type: functional, organism-based; settings: time 3.0 day
[27] = tested on: Mus musculus; experiment: Reno-protective activity in C57BL/6 mouse model of renal I/R injury assessed as reduction in fibrosis by measuring collagen deposition dosed intraperitoneally twice per day for 3 days starting from 6 to 24 hrs post I/R operation by Masson staining based assay; assay type: functional, organism-based; settings: time 3.0 day
[28] = tested on: Mus musculus; experiment: Reno-protective activity in C57BL/6 mouse model of renal I/R injury assessed as reduction lymphocyte infiltration dosed intraperitoneally twice per day for 3 days starting from 6 to 24 hrs post I/R operation; assay type: functional, organism-based; settings: time 3.0 day
[29] = tested on: Mus musculus; experiment: Reno-protective activity in C57BL/6 mouse model of renal I/R injury assessed as reduction Kim1 mRNA expression dosed intraperitoneally twice per day for 3 days starting from 6 to 24 hrs post I/R operation by qPCR analysis; assay type: functional, organism-based; settings: time 3.0 day

CSCC[C@H](NC(=O)[C@H](CS)NC(=O)CC[C@H](NC(=O)CCOCCOCCOCCOCCOCCOCCN)C(=O)O)C(=O)N1CCC[C@H]1C(=O)N[C@@H](CC(C)C)C(=O)N[C@@H](Cc1c[nH]cn1)C(=O)N[C@@H](CO)C(=O)N[C@@H](CCCNC(=N)N)C(=O)N[C@H](C(=O)N1CCC[C@H]1C(=O)N[C@@H](Cc1ccccc1)C(=O)N1CCC[C@H]1C(N)=O)C(C)C
Activity [1]: Active | Activity [2]: Active | half-life at 1560 µM [3]: 106 min | Activity [4]: Active | Activity [5]: Active | Activity [6]: Active | Activity [7]: Active | EC50 [8]: 7.84 nM | Activity [9]: Active | Activity [10]: Active | remaining at 1 h, 1560 µM [11]: 38.7% | Activity [12]: Active | Activity [13]: Active | half-life at 1560 µM [14]: 47.4 min | Activity [15]: Active | Activity [16]: Active

CCCCCCCCCCCCCCCC(=O)N[C@@H](CCC(=O)NCCCC[C@H](NC(=O)CCC(=O)N[C@@H](CS)C(=O)N[C@@H](CCSC)C(=O)N1CCC[C@H]1C(=O)N[C@@H](CC(C)C)C(=O)N[C@@H](Cc1c[nH]cn1)C(=O)N[C@@H](CO)C(=O)N[C@@H](CCCNC(=N)N)C(=O)N[C@H](C(=O)N1CCC[C@H]1C(=O)N[C@@H](Cc1ccccc1)C(=O)N1CCC[C@H]1C(N)=O)C(C)C)C(=O)N[C@@H](CS)C(=O)N[C@@H](CCSC)C(=O)N1CCC[C@H]1C(=O)N[C@@H](CC(C)C)C(=O)N[C@@H](Cc1c[nH]cn1)C(=O)N[C@@H](CO)C(=O)N[C@@H](CCCNC(=N)N)C(=O)N[C@H](C(=O)N1CCC[C@H]1C(=O)N[C@@H](Cc1ccccc1)C(=O)N1CCC[C@H]1C(N)=O)C(C)C)C(=O)O
Activity [1]: inactive | half-life at 1560 µM [3]: > 1440 min | Activity [5]: inactive | Activity [6]: inactive | EC50 [8]: 9.48 nM | remaining at 1 h, 1560 µM [11]: 75.9% | Activity [12]: inactive | half-life at 1560 µM [14]: 305 min

CSCC[C@H](NC(=O)[C@@H](N)CS)C(=O)N1CCC[C@H]1C(=O)N[C@@H](CC(C)C)C(=O)N[C@@H](Cc1c[nH]cn1)C(=O)N[C@@H](CO)C(=O)N[C@@H](CCCNC(=N)N)C(=O)N[C@H](C(=O)N1CCC[C@H]1C(=O)N[C@@H](Cc1ccccc1)C(=O)N1CCC[C@H]1C(N)=O)C(C)C
Activity [1]: Active | Activity [2]: Active | half-life at 1560 µM [3]: 23.4 min | Activity [4]: Active | Activity [5]: Active | Activity [6]: Active | Activity [7]: Active | Activity [9]: Active | remaining at 1 h, 1560 µM [11]: 19% | Activity [12]: Active | Activity [13]: Active | half-life at 1560 µM [14]: 22.8 min | half-life [17]: 21 min | Activity [16]: Active

CCCCCCCCCCCCCCCC(=O)N[C@@H](CCC(=O)N[C@@H](CS)C(=O)N[C@@H](CCSC)C(=O)N1CCC[C@H]1C(=O)N[C@@H](CC(C)C)C(=O)N[C@@H](Cc1c[nH]cn1)C(=O)N[C@@H](CO)C(=O)N[C@@H](CCCNC(=N)N)C(=O)N[C@H](C(=O)N1CCC[C@H]1C(=O)N[C@@H](Cc1ccccc1)C(=O)N1CCC[C@H]1C(N)=O)C(C)C)C(=O)O
Activity [1]: Active | Activity [2]: Active | Activity [18]: Active | half-life at 1560 µM [3]: 118 min | Activity [19]: Active | Activity [4]: Active | Activity [5]: Active | Activity [6]: Active | Activity [7]: Active | Activity [20]: Active | Activity [21]: Active | Activity [22]: Active | Activity [23]: Active | Activity [9]: Active | Activity [10]: Active | remaining at 1 h, 1560 µM [11]: 63.6% | Activity [12]: Active | Activity [13]: Active | half-life at 1560 µM [14]: 87 min | Activity [24]: Active | Activity [25]: Active | Activity [15]: Active | Activity [26]: Active | half-life [17]: 1350 min | Activity [27]: Active | Activity [16]: Active | Activity [28]: Active | Activity [29]: Active

CCCCCCCCCCCCCCCC(=O)N[C@@H](CCC(=O)NCCCC[C@H](N)C(=O)N[C@@H](CS)C(=O)N[C@@H](CCSC)C(=O)N1CCC[C@H]1C(=O)N[C@@H](CC(C)C)C(=O)N[C@@H](Cc1c[nH]cn1)C(=O)N[C@@H](CO)C(=O)N[C@@H](CCCNC(=N)N)C(=O)N[C@H](C(=O)N1CCC[C@H]1C(=O)N[C@@H](Cc1ccccc1)C(=O)N1CCC[C@H]1C(N)=O)C(C)C)C(=O)O
Activity [1]: Active | Activity [2]: Active | half-life at 1560 µM [3]: 37.8 min | Activity [5]: Active | Activity [6]: Active | Activity [7]: Active | EC50 [8]: 7.98 nM | Activity [9]: Active | remaining at 1 h, 1560 µM [11]: 25.8% | Activity [12]: Active | half-life at 1560 µM [14]: 30 min | Activity [16]: Active

CSCC[C@H](NC(=O)[C@H](CS)NC(=O)[C@H](CCCNC(=N)N)NC(=O)[C@H](CCCNC(=N)N)NC(=O)[C@@H]1CCC(=O)N1)C(=O)N1CCC[C@H]1C(=O)N[C@@H](CC(C)C)C(=O)N[C@@H](Cc1c[nH]cn1)C(=O)N[C@@H](CO)C(=O)N[C@@H](CCCNC(=N)N)C(=O)N[C@H](C(=O)N1CCC[C@H]1C(=O)N[C@@H](Cc1ccccc1)C(=O)N1CCC[C@H]1C(N)=O)C(C)C
half-life at 1560 µM [14]: 17.4 min
